Reference: ChEMBL document CHEMBL3046942, “Synthesis and biological activity of new cycloalkylthiophene-Schiff bases and their Cr(III) and Zn(II) complexes” (2010)
Active and inactive are the calls of the source. The calls are words filed in the database; no cut-off is given here.

Key:
Listeria monocytogenes [1] = assay: Antibacterial activity against Listeria monocytogenes ATCC 19115 at 0.25 ug/ml after 24 hr by agar well diffusion method; assay type: functional; details: ATCC 19115, 24 h, read-out: DIZ
Brucella abortus = assay: Antibacterial activity against Brucella abortus RSKK-03026 at 0.25 ug/ml after 24 hr by agar well diffusion method; assay type: functional
Shigella boydii [2] = assay: Antibacterial activity against Shigella boydii type 11 at 0.25 ug/ml after 24 hr by agar well diffusion method; assay type: functional; details: type 11, 24 h, read-out: DIZ
Staphylococcus aureus [3] = assay: Antibacterial activity against Staphylococcus aureus ATCC 25923 at 0.25 ug/ml after 24 hr by agar well diffusion method; assay type: functional; details: ATCC 25923, 24 h, read-out: DIZ
Proteus [4] = assay: Antibacterial activity against Proteus OX2 Wrah at 0.25 ug/ml after 24 hr by agar well diffusion method; assay type: functional
Pseudomonas putida [5] = assay: Antibacterial activity against Pseudomonas putida at 0.25 ug/ml after 24 hr by agar well diffusion method; assay type: functional; details: read-out: DIZ
Shigella boydii [6] = assay: Antibacterial activity against Shigella boydii type 16 at 0.25 ug/ml after 24 hr by agar well diffusion method; assay type: functional; details: type 16, 24 h, read-out: DIZ
Escherichia coli [7] = assay: Antibacterial activity against Escherichia coli ATCC 1280 at 0.25 ug/ml after 24 hr by agar well diffusion method; assay type: functional; details: ATCC 1280, 24 h, read-out: DIZ
Salmonella typhimurium [8] = assay: Antibacterial activity against Salmonella enterica subsp. enterica serovar Typhi H NCTC 901.8394 at 0.25 ug/ml after 24 hr by agar well diffusion method; assay type: functional; details: H NCTC 901.8394, 24 h, read-out: DIZ
Candida albicans = assay: Antifungal activity against Candida albicans Y-1200-NIH at 0.25 ug/ml after 24 hr by agar well diffusion method; assay type: functional
Shigella boydii [9] = assay: Antibacterial activity against Shigella boydii type 6 RSKK-96043 at 0.25 ug/ml after 24 hr by agar well diffusion method; assay type: functional; details: type 6 RSKK-96043, 24 h, read-out: DIZ
Shigella boydii [10] = assay: Antibacterial activity against Shigella boydii type 11 at 30 ug after 24 hr by agar well diffusion method; assay type: functional; details: type 11, 24 h, read-out: DIZ
Proteus [11] = assay: Antibacterial activity against Proteus OX2 Wrah at 30 ug after 24 hr by agar well diffusion method; assay type: functional; details: read-out: DIZ
Pseudomonas putida [12] = assay: Antibacterial activity against Pseudomonas putida at 30 ug after 24 hr by agar well diffusion method; assay type: functional; details: read-out: DIZ
Escherichia coli [13] = assay: Antibacterial activity against Escherichia coli ATCC 1280 at 30 ug after 24 hr by agar well diffusion method; assay type: functional; details: ATCC 1280, 24 h, read-out: DIZ
Shigella boydii [14] = assay: Antibacterial activity against Shigella boydii type 16 at 30 ug after 24 hr by agar well diffusion method; assay type: functional; details: type 16, 24 h, read-out: DIZ
Salmonella typhimurium [15] = assay: Antibacterial activity against Salmonella enterica subsp. enterica serovar Typhi H NCTC 901.8394 at 30 ug after 24 hr by agar well diffusion method; assay type: functional; details: H NCTC 901.8394, 24 h, read-out: DIZ
Shigella boydii [16] = assay: Antibacterial activity against Shigella boydii type 6 RSKK-96043 at 30 ug after 24 hr by agar well diffusion method; assay type: functional; details: type 6 RSKK-96043, 24 h, read-out: DIZ
Listeria monocytogenes [17] = assay: Antibacterial activity against Listeria monocytogenes ATCC 19115 at 30 ug after 24 hr by agar well diffusion method; assay type: functional; details: ATCC 19115, 24 h, read-out: DIZ
Staphylococcus aureus [18] = assay: Antibacterial activity against Staphylococcus aureus ATCC 25923 at 30 ug after 24 hr by agar well diffusion method; assay type: functional; details: ATCC 25923, 24 h, read-out: DIZ
Staphylococcus aureus [19] = assay: Antibacterial activity against Staphylococcus aureus ATCC 25923 at 10 ug after 24 hr by agar well diffusion method; assay type: functional; details: ATCC 25923, 24 h, read-out: DIZ
Salmonella typhimurium [20] = assay: Antibacterial activity against Salmonella enterica subsp. enterica serovar Typhi H NCTC 901.8394 at 10 ug after 24 hr by agar well diffusion method; assay type: functional; details: H NCTC 901.8394, 24 h, read-out: DIZ
Pseudomonas putida [21] = assay: Antibacterial activity against Pseudomonas putida at 10 ug after 24 hr by agar well diffusion method; assay type: functional; details: read-out: DIZ
Escherichia coli [22] = assay: Antibacterial activity against Escherichia coli ATCC 1280 at 10 ug after 24 hr by agar well diffusion method; assay type: functional; details: ATCC 1280, 24 h, read-out: DIZ
Listeria monocytogenes [23] = assay: Antibacterial activity against Listeria monocytogenes ATCC 19115 at 10 ug after 24 hr by agar well diffusion method; assay type: functional; details: ATCC 19115, 24 h, read-out: DIZ
Shigella boydii [24] = assay: Antibacterial activity against Shigella boydii type 6 RSKK-96043 at 10 ug after 24 hr by agar well diffusion method; assay type: functional; details: type 6 RSKK-96043, 24 h, read-out: DIZ
Proteus [25] = assay: Antibacterial activity against Proteus OX2 Wrah at 10 ug after 24 hr by agar well diffusion method; assay type: functional; details: read-out: DIZ
Shigella boydii [26] = assay: Antibacterial activity against Shigella boydii type 11 at 10 ug after 24 hr by agar well diffusion method; assay type: functional; details: type 11, 24 h, read-out: DIZ
Shigella boydii [27] = assay: Antibacterial activity against Shigella boydii type 16 at 10 ug after 24 hr by agar well diffusion method; assay type: functional; details: type 16, 24 h, read-out: DIZ
Pseudomonas putida [28] = assay: Antibacterial activity against Pseudomonas putida at 5 ug after 24 hr by agar well diffusion method; assay type: functional; details: read-out: DIZ
Salmonella typhimurium [29] = assay: Antibacterial activity against Salmonella enterica subsp. enterica serovar Typhi H NCTC 901.8394 at 5 ug after 24 hr by agar well diffusion method; assay type: functional; details: H NCTC 901.8394, 24 h, read-out: DIZ
Staphylococcus aureus [30] = assay: microbe, parasite or virus in culture; details: ATCC 25923, 24 h, read-out: DIZ
Shigella boydii [31] = assay: Antibacterial activity against Shigella boydii type 11 at 5 ug after 24 hr by agar well diffusion method; assay type: functional; details: type 11, 24 h, read-out: DIZ
Shigella boydii [32] = assay: Antibacterial activity against Shigella boydii type 16 at 5 ug after 24 hr by agar well diffusion method; assay type: functional; details: type 16, 24 h, read-out: DIZ
Proteus [33] = assay: Antibacterial activity against Proteus OX2 Wrah at 5 ug after 24 hr by agar well diffusion method; assay type: functional; details: read-out: DIZ
Shigella boydii [34] = assay: Antibacterial activity against Shigella boydii type 6 RSKK-96043 at 5 ug after 24 hr by agar well diffusion method; assay type: functional; details: type 6 RSKK-96043, 24 h, read-out: DIZ
Listeria monocytogenes [35] = assay: Antibacterial activity against Listeria monocytogenes ATCC 19115 at 5 ug after 24 hr by agar well diffusion method; assay type: functional; details: ATCC 19115, 24 h, read-out: DIZ

CCOC(=O)c1c(/N=C/c2c(O)ccc3ccccc23)sc2c1CCCC2
zone of inhibition at 0.25 µg/mL (Listeria monocytogenes [1]): 9 mm
diameter of the inhibition zone (DIZ) (Brucella abortus): inactive
zone of inhibition at 0.25 µg/mL (Shigella boydii [2]): 7 mm
zone of inhibition at 0.25 µg/mL (Staphylococcus aureus [3]): 9 mm
diameter of the inhibition zone (DIZ) (Proteus [4]): inactive
zone of inhibition at 0.25 µg/mL (Pseudomonas putida [5]): 7 mm
zone of inhibition at 0.25 µg/mL (Shigella boydii [6]): 8 mm
zone of inhibition at 0.25 µg/mL (Escherichia coli [7]): 6 mm
zone of inhibition at 0.25 µg/mL (Salmonella typhimurium [8]): 7 mm
diameter of the inhibition zone (DIZ) (Candida albicans): inactive
zone of inhibition at 0.25 µg/mL (Shigella boydii [9]): 7 mm

O=C(N[C@H](CO)[C@H](O)c1ccc([N+](=O)[O-])cc1)C(Cl)Cl [CHLORAMPHENICOL]
zone of inhibition at 30 µg/disc (Shigella boydii [10]): 18 mm
zone of inhibition at 30 µg/disc (Proteus [11]): 27 mm
zone of inhibition at 30 µg/disc (Pseudomonas putida [12]): 12 mm
zone of inhibition at 30 µg/disc (Escherichia coli [13]): 30 mm
zone of inhibition at 30 µg/disc (Shigella boydii [14]): 22 mm
zone of inhibition at 30 µg/disc (Salmonella typhimurium [15]): 19 mm
zone of inhibition at 30 µg/disc (Shigella boydii [16]): 18 mm
zone of inhibition at 30 µg/disc (Listeria monocytogenes [17]): 18 mm
zone of inhibition at 30 µg/disc (Staphylococcus aureus [18]): 25 mm

CC1(C)S[C@@H]2[C@H](NC(=O)[C@H](N)c3ccccc3)C(=O)N2[C@H]1C(=O)O [AMPICILLIN]
zone of inhibition at 10 µg/disc (Staphylococcus aureus [19]): 30 mm
zone of inhibition at 10 µg/disc (Salmonella typhimurium [20]): 11 mm
zone of inhibition at 10 µg/disc (Pseudomonas putida [21]): 8 mm
zone of inhibition at 10 µg/disc (Escherichia coli [22]): 10 mm
zone of inhibition at 10 µg/disc (Listeria monocytogenes [23]): 16 mm
zone of inhibition at 10 µg/disc (Shigella boydii [24]): 6 mm
zone of inhibition at 10 µg/disc (Proteus [25]): 9 mm
zone of inhibition at 10 µg/disc (Shigella boydii [26]): 20 mm
zone of inhibition at 10 µg/disc (Shigella boydii [27]): 16 mm

O=C(O)c1cn(C2CC2)c2cc(N3CCNCC3)c(F)cc2c1=O [CIPROFLOXACIN]
zone of inhibition at 5 µg/disc (Pseudomonas putida [28]): 20 mm
zone of inhibition at 5 µg/disc (Salmonella typhimurium [29]): 23 mm
zone of inhibition at 5 µg/disc (Staphylococcus aureus [30]): 25 mm
zone of inhibition at 5 µg/disc (Shigella boydii [31]): 25 mm
zone of inhibition at 5 µg/disc (Shigella boydii [32]): 20 mm
zone of inhibition at 5 µg/disc (Proteus [33]): 27 mm
zone of inhibition at 5 µg/disc (Shigella boydii [34]): 30 mm
zone of inhibition at 5 µg/disc (Listeria monocytogenes [35]): 17 mm

CCOC(=O)c1c(/N=C/c2c(O)ccc3ccccc23)sc2c1CCC2
zone of inhibition at 0.25 µg/mL (Listeria monocytogenes [1]): 7 mm
diameter of the inhibition zone (DIZ) (Brucella abortus): inactive
zone of inhibition at 0.25 µg/mL (Shigella boydii [2]): 8 mm
zone of inhibition at 0.25 µg/mL (Staphylococcus aureus [3]): 14 mm
zone of inhibition at 0.25 µg/mL (Proteus [4]; read-out: DIZ): 5 mm
zone of inhibition at 0.25 µg/mL (Pseudomonas putida [5]): 8 mm
zone of inhibition at 0.25 µg/mL (Shigella boydii [6]): 7 mm
zone of inhibition at 0.25 µg/mL (Escherichia coli [7]): 6 mm
zone of inhibition at 0.25 µg/mL (Salmonella typhimurium [8]): 6 mm
zone of inhibition at 0.25 µg/mL (Candida albicans; read-out: DIZ): 14 mm
zone of inhibition at 0.25 µg/mL (Shigella boydii [9]): 6 mm
